Paper PMC4503980 (Scientific Reports, 2015)

How the values were obtained:
[1] = tested on: 34 targets in a panel of receptors, ion channels, and transporters; design: method as in PMID 19732061; conditions: cited from earlier work
nNOS/PSD-95 interaction = tested on: nNOS/PSD-95 interaction; design: method as in PMID 19732061; conditions: cited from earlier work
[2] = biological target: T1, nNOS-PDZ/PSD-95-PDZ2 interaction (Mus musculus, UniProt Q9Z0J4); experiment: ITC of nNOS-PDZ/PSD-95-PDZ2 interaction in the presence of compound; type: binding; conditions: 1 mM IC87201 present; significant interference, reduced reliability
T1 construct: nNOS-PDZ (residues 12–134, Uniprot Q9JJ30); PSD-95-PDZ2 (157–249, human); made in house
Procedure: Unlike the FP experiments above, which rely on inhibition of interaction partners, the ITC method is a direct measure of binding, regardless of where it takes place on the protein.
Figure 5 ITC curves. Plots showing titrations into PDZ domains fitted to a one-site model.
All ITC experiments were carried out at 25 °C on an iTC200 Microcalorimeter (GE Healthcare) with a 200 μL cell capacity and 40 μL syringe volume. The buffer used for all solutions was 20 mM phosphate buffer at pH 6.3; each experiment consisted of an initial injection of 0.5 μL, followed by fifteen 2.39 μL injections before a final injection of 1.89 μL. […] In both cases no heat exchange was detected, confirming that there was appropriate match of buffer conditions with no indication of dilution effects. […] For the nNOS-PDZ/PSD-95-PDZ2 interaction, 100 μM PDZ2 in the cell was titrated with 750 μM nNOS-PDZ. […] All data was analysed using the Origin®7 software programme.

two mice pain models = tested on: two mice pain models; design: method as in PMID 19732061; conditions: cited from earlier work
[3] = tested on: NMDA-induced 3′,5′-cyclic guanosine monophosphate (cGMP) production; design: method as in PMID 19732061; conditions: hippocampal cultures; cited from earlier work
PSD-95/cypin-interaction = tested on: PSD-95/cypin-interaction; design: method as in PMID 19732061; conditions: cited from earlier work
nNOS/CAPON = tested on: nNOS/CAPON; design: method as in PMID 21102461; conditions: cited from earlier work
PSD-95/SynGAP = tested on: PSD-95/SynGAP; design: method as in PMID 21102461; conditions: cited from earlier work

T1 sequence (Q9Z0J4 12-134): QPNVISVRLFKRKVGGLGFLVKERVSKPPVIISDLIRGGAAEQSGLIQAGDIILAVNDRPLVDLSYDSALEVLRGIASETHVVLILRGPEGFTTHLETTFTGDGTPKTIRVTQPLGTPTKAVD

Row | effect on affinity between nNOS-PDZ and PSD-95-PDZ2 (ITC) [2] | SMILES | effect on 34 targets in a panel of receptors, ion channels, and transporters [1] | disruption of nNOS/PSD-95 interaction in vitro (nNOS/PSD-95 interaction) | analgesic properties (two mice pain models) | NMDA-induced cGMP production [3] | effect on PSD-95/cypin-interaction (PSD-95/cypin-interaction) | inhibition of nNOS/CAPON (nNOS/CAPON) | inhibition of PSD-95/SynGAP (PSD-95/SynGAP)
1 | appeared to be affected | Oc1c(Cl)cc(Cl)cc1CNc1ccc2[nH]nnc2c1 [IC87201, 2-((1H-Benzo[d][1–3]triazol-5-ylamino)methyl)-4-6-dichlorophenol] | did not affect | disrupt | analgesic properties | blocked | did not affect | – | –
2 | – | O=C(O)c1ccc(NCc2cc(Cl)cc(Cl)c2O)cc1O [ZL006, 4-((3,5-Dichloro-2-hydroxybenzyl)amino)-2-hydroxybenzoic acid] | – | – | – | – | – | not inhibited | not inhibited
